Earlier results as cited in patent US5741805A, “Controlled release pilocarpine delivery system” (OraMed, Inc., priority 1995, dated 1998).

Test system: xerostomia
Conditions: 5 mg capsules or tablets three to four times a day

CC[C@@H]1C(=O)OC[C@@H]1Cc1cncn1C [Pilocarpine, pilocarpine]
salivary function: marked improvement
side effects: numerous side effects
